Earlier results in article PMC5664587 (Fluids and Barriers of the CNS, 2017).

Settings: brain homogenate

fu,brain, previously reported: 0.029
Compound: CC(C)NCC(O)COc1cccc2ccccc12 (stereo not shown) [propranolol]
